{"source": "patent US6384254B1", "about": "“Quaternary ammonium salt-containing polysiloxane, making method, and fiber or fabric treating agent composition” (Shin-Etsu Chemical Co., Ltd., priority 1999, dated 2002)", "system": "stephelococcus Aureus", "experiment": "percentage loss of bacteria on treated cloth after ten launderings, shaking flask method", "assay_type": "cell-based", "conditions": "polyester/cotton (65%/35%) cloth dipped in treating bath (2.0 wt% silicone solids; CE1 3.5 wt% solids), laundered ten times by 103 method of JIS L-0217", "description": "The emulsion was diluted to an aqueous solution having a silicone solid concentration of 2.0% by weight. A polyester/cotton (65%/35%) mixed broad-cloth was dipped in the solution for one minute, nipped through rolls at a nip rate of 100%, dried at 135° C. for one minute and heat treated at 165° C. for 2 minutes. The thus treated cloth was laundered ten times in accordance with the 103 method of JIS L-0217 whereupon a percentage loss of stephelococcus Aureus was compared by the shaking flask method. The texture of the treated cloth was examined by finger touch before and after washing.\nFor comparison purpose, using a 38% solids methanol solution of 3-(trimethoxysilyl)propyldimethyloctadecylammonium chloride, a 3.5 wt% solids aqueous solution was prepared. A similar experiment was carried out. This is Comparative Example 1.", "data": [{"smiles": "CCCCCCCCCCCCCCCCCC[N+](C)(C)CCC[Si](OC)(OC)OC.[Cl-]", "note": "[CE1, 3-(trimethoxysilyl)propyldimethyloctadecylammonium chloride]", "values": [{"measurement": "Bacteria loss after washing (%)", "result": 35, "unit": "%"}]}]}
